Here are results for 35 molecules from US9458141B2, “Low molecular weight thyroid stimulating hormone receptor (TSHR) agonists” (The United States of America, as represented by the …, priority 2008, dated 2016).

Molecules are shown by their SMILES. Like-named read-outs stand apart in the source and are kept apart here.

The target of this assay is T1, human TSHR (Homo sapiens, UniProt P16473).
T1 construct: expressed in transfected cells
Kind of assay: Homogeneous Time Resolved Fluorescence (HTRF) cAMP assay, TSHR cell line. The format is cell-based. The following applies: for Maximum Activity compared to TSH: 100% activity = response of 30 mU/ml TSH, 0% = DMSO control, in %; for AC50: TSHR cell line, 30 minute incubation; for Emax: read-out: Maximum Activity compared to TSH, 100% activity = response of 30 mU/ml TSH, 0% = DMSO control. The text has this:
Generation of Stable Cell-Lines Expressing TSHR, LHCGR or FSHR.
cDNA for human TSHR was amplified by PCR from hTSHR-pSVL (1) and inserted into the pcDNA3.1(−)/hygromycin vector using restriction sites XhoI and BamHI. cDNA for human LHCGR was amplified by PCR from hLHR-pGS5 (2) and was inserted into the pcDNA3.1(+)/hygromycin vector using restriction sites BamHI and XhoI. The FSHR cDNA in pcDNA3.1 was obtained from the Missouri S&T cDNA Resource Center (www.cDNA.org) and was subcloned into the pcDNA3.1(−)/hygromycin vector. Constructs were confirmed by sequencing (MWG Biotech). HEK-EM 293 cells were transfected with the cDNA of TSHR, LHCGR or FSHR using FuGENE 6 Transfection reagent (Roche Diagnostics) according to the manufacturer's protocol. Two days after transfection cells were passaged and grown in Dulbecco's modified Eagle's Medium (DMEM) supplemented with 10% fetal bovine serum, 100 units/ml penicillin and 10 μg/ml streptomycin (Life Technologies Inc.) and with hygromycin (250 μg/ml) as a selection marker. After 7 to 10 days hygromycin-resistant clones were selected, and after a few days of further growth submitted for a cAMP assay to identify clones that stably express the appropriate receptor. Cell Culture. Cells stably expressing TSHR, LHCGR or FSHR and parental HEK 293 cells were maintained in DMEM medium containing 10% FBS, 100 units/ml Penicillin, 100 μg/ml Streptomycin, at 37° C. in 5% CO2. For the cells lines stably expressing TSHR, LHCGR or FSHR, additional 250 μg/ml Hygromycin was added during the cell culture. The cells were seeded at a density of 3 to 4 million cells in a T175 flask containing 35 ml of media and were allowed to grow for 3 days to reach 80-90% confluence. A flask of HEK 293 cells at this density generally yielded 30 million cells total. Homogeneous Time Resolved Fluorescence (HTRF) cAMP Assay. Compounds were assayed using a HTRF cAMP detection kit (Cisbio, Bedford, Mass.) on both TSHR cell line and parental cell line. Briefly, 750 cells were plated in 2.5 μl/well of complete media (DMEM containing 10% FCS) in 1536 well solid bottom white plates and 20 nl/well compound in DMSO solution or controls was added. Following 30 minute incubation at room temperature, 2.5 μl/well of labeled d2 cAMP and 2.5 μl/well of anti-cAMP antibody (both diluted 1:20 in lysis buffer) were added to each well using a flying reagent dispenser (Aurora Discovery, San Diego). Plates were measured using the Envision plate reader (PerkinElmer, Boston, Mass.) with excitation at 330 nm and emissions of 615 nm and 660 nm. Compound Preparation. […] Data Analysis. […] The EC50 values of compounds were calculated from the concentration-response curves by nonlinear regression analysis using Prism software (GraphPad Software, San Diego, Calif.). Confirmatory cAMP Assay and Test for Selectivity Towards TSHR 50,000 cells/well were plated in complete media (DMEM containing 10% FCS) in 96 well plates. […] Following aspiration of the medium after incubation with compounds, cells were lysed using lysis buffer of the cAMP-Screen Direct™ System (Applied Biosystems, Cat # CSD200). The cAMP content of the cell lysate was determined using the manufacturer's protocol. […] Below is a List of Compounds that were Assayed via the Homogeneous Time Resolved Fluorescence (HTRF) cAMP Assay.

T1 sequence (P16473 21-764): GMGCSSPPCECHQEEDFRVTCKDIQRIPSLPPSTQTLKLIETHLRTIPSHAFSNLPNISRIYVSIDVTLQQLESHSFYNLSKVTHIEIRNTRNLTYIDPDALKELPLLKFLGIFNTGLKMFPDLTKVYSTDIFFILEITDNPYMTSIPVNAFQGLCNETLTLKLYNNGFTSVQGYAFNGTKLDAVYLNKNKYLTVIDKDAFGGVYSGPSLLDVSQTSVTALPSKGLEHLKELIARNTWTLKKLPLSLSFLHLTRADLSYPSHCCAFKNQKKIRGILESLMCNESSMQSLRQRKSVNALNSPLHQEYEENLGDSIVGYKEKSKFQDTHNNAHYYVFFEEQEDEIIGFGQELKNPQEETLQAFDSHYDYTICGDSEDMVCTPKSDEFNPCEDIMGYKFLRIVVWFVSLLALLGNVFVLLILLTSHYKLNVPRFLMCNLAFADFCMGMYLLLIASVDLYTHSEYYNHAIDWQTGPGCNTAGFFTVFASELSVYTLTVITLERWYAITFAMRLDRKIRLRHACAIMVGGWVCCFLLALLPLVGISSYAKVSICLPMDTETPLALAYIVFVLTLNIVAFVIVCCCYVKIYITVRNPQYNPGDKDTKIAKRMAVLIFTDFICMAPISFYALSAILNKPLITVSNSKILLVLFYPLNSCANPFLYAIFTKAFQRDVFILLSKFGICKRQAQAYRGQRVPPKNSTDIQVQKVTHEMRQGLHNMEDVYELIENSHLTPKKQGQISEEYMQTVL

As to `COc1ccc(C2Nc3ccccc3C(=O)N2Cc2ccccc2)cc1COc1ccc(NC(C)=O)cc1` (single isomer, unassigned) [Structure 2], the “Maximum Activity compared to TSH” value turned out to be 217.29. The molecule further yielded an AC50 (AC50, HTRF cAMP) of 11.2 µM.

For the molecule `COc1ccc(C2Nc3ccccc3C(=O)N2Cc2ccccc2)cc1COc1ccc(NC(C)=O)cc1` (single isomer, unassigned) [Structure 4], the “Maximum Activity compared to TSH” value came to 171.91. The molecule further yielded an AC50 (AC50, HTRF cAMP) of 7.08 µM.

Turning to `COc1ccc(C2Nc3ccccc3C(=O)N2Cc2ccccc2)cc1COc1ccc(NC(C)=O)cc1` (single isomer, unassigned) [Structure 7], the “Maximum Activity compared to TSH” value turned out to be 152.47. The same molecule came in with an AC50 (AC50, HTRF cAMP) of 8.91 µM.

Turning to `COc1ccc(C2Nc3ccccc3C(=O)N2Cc2ccccc2)cc1COc1ccc(NC(C)=O)cc1` (single isomer, unassigned) [Structure 24], the “Maximum Activity compared to TSH” value is 159.76. In addition, under “AC50, HTRF cAMP”, the AC50 stood at 7.08 µM.

Regarding `COc1ccc(C2Nc3ccccc3C(=O)N2Cc2ccccc2)cc1COc1ccc(NC(C)=O)cc1` (single isomer, unassigned) [Structure 25], the “Maximum Activity compared to TSH” value is recorded as 207.56. The AC50 (AC50, HTRF cAMP) worked out at 8.91 µM.

For the molecule `COc1ccc(C2Nc3ccccc3C(=O)N2Cc2ccccc2)cc1COc1ccc(NC(C)=O)cc1` (single isomer, unassigned) [Structure 26], the “Maximum Activity compared to TSH” value worked out at 217.05. The molecule also displayed an AC50 (AC50, HTRF cAMP) of 10 µM.

Take `COc1ccc(C2Nc3ccccc3C(=O)N2Cc2ccccc2)cc1COc1ccc(NC(C)=O)cc1` (single isomer, unassigned) [Structure 37]: the “Maximum Activity compared to TSH” value is on record as 104.22. Moreover, where the note is “AC50, HTRF cAMP”, the AC50 came out at 8.91 µM.

On to `COc1ccc(C2Nc3ccccc3C(=O)N2Cc2ccccc2)cc1COc1ccc(NC(C)=O)cc1` (single isomer, unassigned) [Structure 49], for which the “Maximum Activity compared to TSH” value was determined as 134.24. Also, half-maximal activity (AC50, HTRF cAMP) (AC50) was put at 3.55 µM.

For `COc1ccc(C2Nc3ccccc3C(=O)N2Cc2ccccc2)cc1COc1ccc(NC(C)=O)cc1` (single isomer, unassigned) [Structure 51], the “Maximum Activity compared to TSH” value is 174.87. Where the note is “AC50, HTRF cAMP”, this molecule displayed an AC50 of 15.8 µM.

As for `COc1ccc(C2Nc3ccccc3C(=O)N2Cc2ccccc2)cc1COc1ccc(NC(C)=O)cc1` (single isomer, unassigned) [Structure 55], the “Maximum Activity compared to TSH” value amounted to 194.91. For the same molecule, the AC50 (AC50, HTRF cAMP) worked out at 7.94 µM.

On to `COc1ccc(C2Nc3ccccc3C(=O)N2Cc2ccccc2)cc1COc1ccc(NC(C)=O)cc1` (single isomer, unassigned) [Structure 56], for which the “Maximum Activity compared to TSH” value turned out to be 110.90. Where the note is “AC50, HTRF cAMP”, this molecule yielded an AC50 of 11.2 µM.

For the molecule `COc1ccc(C2Nc3ccccc3C(=O)N2Cc2ccccc2)cc1COc1ccc(NC(C)=O)cc1` (single isomer, unassigned) [Structure 62], the “Maximum Activity compared to TSH” value amounted to 241.92. For the same molecule, the AC50 (AC50, HTRF cAMP) stood at 7.08 µM.

On to `COc1ccc(C2Nc3ccccc3C(=O)N2Cc2ccccc2)cc1COc1ccc(NC(C)=O)cc1` (single isomer, unassigned) [Structure 63], for which the “Maximum Activity compared to TSH” value is reported as 166.46. The same molecule displayed an AC50 (AC50, HTRF cAMP) of 5.01 µM.

On to `COc1ccc(C2Nc3ccccc3C(=O)N2Cc2ccco2)cc1COc1ccc(NC(C)=O)cc1` (stereo not shown) [Structure 1], for which the “Maximum Activity compared to TSH” value turned out to be 159.24. Also, the AC50 (HTRF cAMP, read-out: AC50) was determined as 12.6 µM.

As to `COc1ccc(CN2C(=O)c3ccccc3NC2c2ccc(OC)c(COc3ccc(NC(C)=O)cc3)c2)cc1` (stereo not shown) [Structure 3], the “Maximum Activity compared to TSH” value is 93.95. For the setting “HTRF cAMP, read-out: AC50”, the AC50 was 4.47 µM.

As to `COc1ccc(CN(Cc2ccccc2)C(=O)c2ccccc2)cc1COc1ccc(NC(C)=O)cc1` [Structure 5], the “Maximum Activity compared to TSH” value was found to be 174.77. The AC50 (HTRF cAMP, read-out: AC50) came out at 15.8 µM.

On to `COc1ccc(C2Nc3ccccc3C(=O)N2Cc2ccco2)cc1COc1ccc(NC(C)=O)cc1` (stereo not shown) [Structure 6], for which the “Maximum Activity compared to TSH” value is reported as 180.81. Also, the concentration at half-maximal activity (AC50) (HTRF cAMP, read-out: AC50) amounted to 17.8 µM.

Take `COc1ccc(C2Nc3ccccc3C(=O)N2Cc2ccco2)cc1COc1ccc(NC(C)=O)cc1` (stereo not shown) [Structure 8]: the “Maximum Activity compared to TSH” value was 115.96. For the same molecule, the AC50 (HTRF cAMP, read-out: AC50) was 14.1 µM.

Turning to `COc1ccc(C2Nc3ccccc3C(=O)N2Cc2ccco2)cc1COc1ccc(NC(C)=O)cc1` (stereo not shown) [Structure 9], the “Maximum Activity compared to TSH” value turned out to be 115.62. Also, the AC50 (HTRF cAMP, read-out: AC50) turned out to be 17.8 µM.

As for `COc1ccc(C2Nc3ccc(NC(C)=O)cc3C(=O)N2Cc2cccc(Cl)c2)cc1COc1ccc(NC(C)=O)cc1` (stereo not shown) [Structure 10], the Emax is 122%. In addition, where the note is “HTRF cAMP, read-out: AC50”, the AC50 turned out to be 7.94 µM.

With `COc1ccc(C2Nc3ccccc3C(=O)N2Cc2cccc(Cl)c2)cc1COc1ccc(NC(C)=O)cc1` (stereo not shown) [Structure 11], the “Maximum Activity compared to TSH” value worked out at 113.94. The AC50 (HTRF cAMP, read-out: AC50) was 3.16 µM.

As for `COc1ccc(C2Nc3ccccc3C(=O)N2Cc2cccc(Cl)c2)cc1COc1ccc(NC(C)=O)cc1` (stereo not shown) [Structure 12], the “Maximum Activity compared to TSH” value came out at 91.43. For the same molecule, the AC50 (HTRF cAMP, read-out: AC50) is 3.98 µM.

Turning to `COc1ccc(C2Nc3ccccc3C(=O)N2Cc2cccc(-c3ccccc3)c2)cc1COc1ccc(NC(C)=O)cc1` (stereo not shown) [Structure 13], the “Maximum Activity compared to TSH” value worked out at 103.29. Moreover, the AC50 (HTRF cAMP, read-out: AC50) stood at 2.24 µM.

In the case of `COc1ccc(C2Nc3ccccc3C(=O)N2Cc2ccco2)cc1COc1ccc(NC(C)=O)cc1` (stereo not shown) [Structure 14], the “Maximum Activity compared to TSH” value was determined as 104.66. Besides, the AC50 (HTRF cAMP, read-out: AC50) stood at 11.2 µM.

Consider `COc1ccc(C(=O)N(Cc2ccccc2)Cc2ccc(OC)c(COc3ccc(NC(C)=O)cc3)c2)cc1` [Structure 15], for which the Emax came out at 123%. The AC50 (HTRF cAMP, read-out: AC50) stood at 12.6 µM.

For `CCCCN1C(=O)c2ccccc2NC1c1ccc(OC)c(COc2ccc(NC(C)=O)cc2)c1` (stereo not shown) [Structure 16], the “Maximum Activity compared to TSH” value was determined as 97.95. Moreover, the AC50 (HTRF cAMP, read-out: AC50) worked out at 20 µM.

In the case of `COc1ccc(-c2nc3ccccc3c(=O)n2Cc2ccccc2)cc1COc1ccc(NC(C)=O)cc1` [Structure 17], the “Maximum Activity compared to TSH” value amounted to 93.46. For the setting “HTRF cAMP, read-out: AC50”, the AC50 is 10 µM.

Take `COc1cccc(CN2C(=O)c3ccccc3NC2c2ccc(OC)c(COc3ccc(NC(C)=O)cc3)c2)c1` (stereo not shown) [Structure 18]: the “Maximum Activity compared to TSH” value turned out to be 215.89. Besides, the AC50 (HTRF cAMP, read-out: AC50) came to 6.31 µM.

As for `COc1ccc(C2Nc3ccccc3C(=O)N2Cc2ccco2)cc1COc1ccc(NC(C)=O)cc1` (stereo not shown) [Structure 19], the “Maximum Activity compared to TSH” value is given as 142.18. Besides, the AC50 (HTRF cAMP, read-out: AC50) worked out at 15.8 µM.

As for `COc1ccc(C2Nc3ccccc3C(=O)N2Cc2ccco2)cc1COc1ccc(NC(C)=O)cc1` (stereo not shown) [Structure 20], the “Maximum Activity compared to TSH” value is 156.28. Besides, the AC50 (HTRF cAMP, read-out: AC50) was 14.1 µM.

In the case of `COc1ccc(CN(Cc2ccccc2)C(=O)c2ccccc2N)cc1COc1ccc(NC(C)=O)cc1` [Structure 21], the “Maximum Activity compared to TSH” value is reported as 236.35. For the same molecule, the AC50 (HTRF cAMP, read-out: AC50) was found to be 25.1 µM.

`COc1ccc(C2Nc3ccccc3C(=O)N2Cc2ccccc2)cc1CSc1ccc(NC(C)=O)cc1` (stereo not shown) [Structure 22]: the “Maximum Activity compared to TSH” value stood at 463.89. In addition, where the note is “HTRF cAMP, read-out: AC50”, the AC50 was found to be 7.94 µM.

Regarding `COc1ccc(C2Nc3ccccc3C(=O)N2Cc2ccco2)cc1COc1ccc(NC(C)=O)cc1` (stereo not shown) [Structure 23], the “Maximum Activity compared to TSH” value turned out to be 165.50. Under “HTRF cAMP, read-out: AC50”, the half-maximal activity concentration (AC50) turned out to be 15.8 µM.

Take `COc1ccc(C2Nc3ccccc3C(=O)N2Cc2cccc(C(F)(F)F)c2)cc1COc1ccc(NC(C)=O)cc1` (stereo not shown) [Structure 27]: the “Maximum Activity compared to TSH” value worked out at 123.52. The AC50 (HTRF cAMP, read-out: AC50) came out at 4.47 µM.

For `COc1ccc(C2Nc3cccc(O)c3C(=O)N2Cc2ccccc2)cc1COc1ccc(NC(C)=O)cc1` (stereo not shown) [Structure 28], the “Maximum Activity compared to TSH” value was found to be 405.10. Also, the AC50 (HTRF cAMP, read-out: AC50) amounted to 10 µM.
